Experimental data as given in publication PMC4858680, “A platinum-based hybrid drug design approach to circumvent acquired resistance to molecular targeted tyrosine kinase inhibitors” (Scientific Reports, 2016).
Read-outs that look alike come from different tables or passages of the source.

Experiments:
Type in all cases: binding
ERBB3 = target: T1, ERBB3 (Homo sapiens, UniProt P21860); conditions: for Percent control: ERBB3, 10 μM; for remaining binding at 10 µM: read-out: Percent control
T1 construct: purchased DiscoveRx KINOMEscan

FES = target: T2, FES (Homo sapiens, UniProt P07332); conditions: for remaining binding at 10 µM: read-out: Percent control
T2 construct: purchased DiscoveRx KINOMEscan

TNK1 = target: T3, TNK1 (Homo sapiens, UniProt Q13470); conditions: for Percent control: 10 μM; for remaining binding at 10 µM: read-out: Percent control
T3 construct: purchased DiscoveRx (KINOMEscan service)
T3 sequence (Q13470 1-666): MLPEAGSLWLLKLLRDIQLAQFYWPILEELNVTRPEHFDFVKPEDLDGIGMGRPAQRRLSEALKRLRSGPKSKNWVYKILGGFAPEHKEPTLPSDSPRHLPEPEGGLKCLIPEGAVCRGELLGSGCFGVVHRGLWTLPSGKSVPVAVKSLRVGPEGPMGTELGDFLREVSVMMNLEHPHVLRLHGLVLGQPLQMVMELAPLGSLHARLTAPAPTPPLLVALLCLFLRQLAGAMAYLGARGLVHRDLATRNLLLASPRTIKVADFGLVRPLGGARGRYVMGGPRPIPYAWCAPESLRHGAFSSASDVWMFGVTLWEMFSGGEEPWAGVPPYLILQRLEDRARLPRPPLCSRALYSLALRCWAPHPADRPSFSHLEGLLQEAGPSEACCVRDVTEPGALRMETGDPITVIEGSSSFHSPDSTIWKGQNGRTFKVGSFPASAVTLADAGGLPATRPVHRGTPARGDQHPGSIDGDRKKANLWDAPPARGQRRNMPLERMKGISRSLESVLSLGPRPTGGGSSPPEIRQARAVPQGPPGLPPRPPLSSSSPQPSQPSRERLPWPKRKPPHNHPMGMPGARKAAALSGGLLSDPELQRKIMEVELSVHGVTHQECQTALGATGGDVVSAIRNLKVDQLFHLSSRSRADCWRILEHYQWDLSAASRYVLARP

PYK2 = target: T4, PYK2 (Homo sapiens, UniProt Q14289); conditions: for remaining binding at 10 µM: read-out: Percent control
T4 construct: purchased DiscoveRx KINOMEscan

BRK = target: T5, BRK (Homo sapiens, UniProt Q13882); conditions: for Percent control: BRK, 10 μM; for remaining binding at 10 µM: read-out: Percent control
T5 construct: purchased DiscoveRx KINOMEscan

EPHA7 = target: T6, EPHA7 (Homo sapiens, UniProt Q15375); conditions: for remaining binding at 10 µM: read-out: Percent control
T6 construct: purchased DiscoveRx KINOMEscan

EPHA2 = target: T7, EPHA2 (Homo sapiens, UniProt P29317); conditions: for remaining binding at 10 µM: read-out: Percent control
T7 construct: purchased DiscoveRx KINOMEscan

MERTK = target: T8, MERTK (Homo sapiens, UniProt Q12866); conditions: for remaining binding at 10 µM: read-out: Percent control
T8 construct: purchased DiscoveRx KINOMEscan
T8 sequence (Q12866 21-999): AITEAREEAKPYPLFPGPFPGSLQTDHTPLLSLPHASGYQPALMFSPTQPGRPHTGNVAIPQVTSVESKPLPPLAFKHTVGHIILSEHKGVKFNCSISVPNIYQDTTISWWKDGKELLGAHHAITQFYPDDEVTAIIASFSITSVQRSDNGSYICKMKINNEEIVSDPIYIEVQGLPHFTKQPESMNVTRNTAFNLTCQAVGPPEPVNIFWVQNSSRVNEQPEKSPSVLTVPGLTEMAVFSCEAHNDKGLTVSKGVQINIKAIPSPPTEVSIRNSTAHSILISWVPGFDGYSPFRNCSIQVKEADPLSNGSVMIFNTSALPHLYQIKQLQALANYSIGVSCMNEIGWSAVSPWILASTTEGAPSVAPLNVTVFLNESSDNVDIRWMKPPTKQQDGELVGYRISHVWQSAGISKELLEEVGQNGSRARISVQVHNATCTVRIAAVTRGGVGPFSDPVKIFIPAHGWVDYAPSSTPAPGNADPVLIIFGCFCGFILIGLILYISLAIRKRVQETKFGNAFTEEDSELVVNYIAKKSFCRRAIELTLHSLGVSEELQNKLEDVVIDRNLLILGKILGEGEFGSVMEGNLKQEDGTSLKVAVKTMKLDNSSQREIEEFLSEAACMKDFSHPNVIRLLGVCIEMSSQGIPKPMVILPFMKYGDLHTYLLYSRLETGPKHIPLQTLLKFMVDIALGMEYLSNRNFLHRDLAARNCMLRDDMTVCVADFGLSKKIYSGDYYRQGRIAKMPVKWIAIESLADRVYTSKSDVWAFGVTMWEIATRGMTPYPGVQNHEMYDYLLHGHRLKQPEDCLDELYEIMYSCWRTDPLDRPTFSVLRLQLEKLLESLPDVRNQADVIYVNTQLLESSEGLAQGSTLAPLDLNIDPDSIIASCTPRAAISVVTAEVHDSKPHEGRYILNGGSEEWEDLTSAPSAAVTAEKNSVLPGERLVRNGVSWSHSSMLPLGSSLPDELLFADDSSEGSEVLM

ERBB4 = target: T9, ERBB4 (Homo sapiens, UniProt Q15303); conditions: for remaining binding at 10 µM: read-out: Percent control
T9 construct: purchased DiscoveRx KINOMEscan

BMX = target: T10, BMX (Homo sapiens, UniProt P51813); conditions: for remaining binding at 10 µM: read-out: Percent control
T10 construct: purchased DiscoveRx KINOMEscan
T10 sequence (P51813 1-675): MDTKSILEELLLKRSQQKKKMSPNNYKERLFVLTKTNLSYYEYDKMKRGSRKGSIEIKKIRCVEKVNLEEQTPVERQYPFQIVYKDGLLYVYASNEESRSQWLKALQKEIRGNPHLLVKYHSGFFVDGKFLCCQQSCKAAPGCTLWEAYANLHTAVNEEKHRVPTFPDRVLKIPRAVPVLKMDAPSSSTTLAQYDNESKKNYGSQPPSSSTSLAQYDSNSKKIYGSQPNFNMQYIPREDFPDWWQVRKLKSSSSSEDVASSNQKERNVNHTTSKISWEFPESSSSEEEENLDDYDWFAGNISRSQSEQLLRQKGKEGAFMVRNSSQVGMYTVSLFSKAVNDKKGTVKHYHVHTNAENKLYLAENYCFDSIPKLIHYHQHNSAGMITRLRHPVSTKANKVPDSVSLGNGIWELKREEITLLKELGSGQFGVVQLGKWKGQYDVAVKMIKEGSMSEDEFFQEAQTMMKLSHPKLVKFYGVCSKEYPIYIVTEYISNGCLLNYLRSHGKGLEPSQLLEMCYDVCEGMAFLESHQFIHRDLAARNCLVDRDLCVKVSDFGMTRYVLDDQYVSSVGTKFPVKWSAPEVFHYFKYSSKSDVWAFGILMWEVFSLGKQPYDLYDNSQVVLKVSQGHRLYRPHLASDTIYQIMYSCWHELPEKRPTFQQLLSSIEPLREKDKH

T5 sequence (Q13882 whole entry): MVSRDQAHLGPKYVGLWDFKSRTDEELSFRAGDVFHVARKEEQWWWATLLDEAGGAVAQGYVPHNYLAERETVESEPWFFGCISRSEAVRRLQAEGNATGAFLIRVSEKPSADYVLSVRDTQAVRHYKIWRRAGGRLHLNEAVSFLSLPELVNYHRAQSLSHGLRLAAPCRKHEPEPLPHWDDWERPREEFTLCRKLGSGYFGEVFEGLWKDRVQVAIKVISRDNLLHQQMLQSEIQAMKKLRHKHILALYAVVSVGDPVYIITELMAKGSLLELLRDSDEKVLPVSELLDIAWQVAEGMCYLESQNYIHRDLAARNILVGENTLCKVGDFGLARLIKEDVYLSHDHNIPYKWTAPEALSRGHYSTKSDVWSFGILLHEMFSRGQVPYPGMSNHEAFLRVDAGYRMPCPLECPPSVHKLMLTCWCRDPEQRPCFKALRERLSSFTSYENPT
T6 sequence (Q15375 28-998): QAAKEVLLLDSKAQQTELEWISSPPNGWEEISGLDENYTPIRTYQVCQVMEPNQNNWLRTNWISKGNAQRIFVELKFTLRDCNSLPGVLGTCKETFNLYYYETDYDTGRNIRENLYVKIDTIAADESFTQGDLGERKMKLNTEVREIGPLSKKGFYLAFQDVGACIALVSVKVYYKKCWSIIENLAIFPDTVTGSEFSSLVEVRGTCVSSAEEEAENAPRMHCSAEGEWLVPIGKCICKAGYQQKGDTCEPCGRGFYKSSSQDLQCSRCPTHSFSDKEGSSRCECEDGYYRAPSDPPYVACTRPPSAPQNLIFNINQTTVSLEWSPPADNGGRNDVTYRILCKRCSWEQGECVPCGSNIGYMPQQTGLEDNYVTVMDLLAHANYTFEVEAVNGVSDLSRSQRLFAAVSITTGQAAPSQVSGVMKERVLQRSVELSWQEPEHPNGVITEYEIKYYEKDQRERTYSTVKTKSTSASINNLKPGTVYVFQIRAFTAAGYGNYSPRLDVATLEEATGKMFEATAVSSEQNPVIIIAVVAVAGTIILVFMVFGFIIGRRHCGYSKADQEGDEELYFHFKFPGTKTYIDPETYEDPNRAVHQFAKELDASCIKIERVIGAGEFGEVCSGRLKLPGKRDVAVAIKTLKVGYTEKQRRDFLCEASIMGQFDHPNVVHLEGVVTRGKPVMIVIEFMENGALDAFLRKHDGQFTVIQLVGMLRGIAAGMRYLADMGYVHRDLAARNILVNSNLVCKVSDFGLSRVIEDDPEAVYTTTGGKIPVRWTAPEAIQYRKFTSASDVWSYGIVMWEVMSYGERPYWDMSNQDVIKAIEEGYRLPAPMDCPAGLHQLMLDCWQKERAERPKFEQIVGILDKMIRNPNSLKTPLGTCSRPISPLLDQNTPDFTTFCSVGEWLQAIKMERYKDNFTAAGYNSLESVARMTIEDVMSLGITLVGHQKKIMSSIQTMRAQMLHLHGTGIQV
T1 sequence (P21860 20-1342): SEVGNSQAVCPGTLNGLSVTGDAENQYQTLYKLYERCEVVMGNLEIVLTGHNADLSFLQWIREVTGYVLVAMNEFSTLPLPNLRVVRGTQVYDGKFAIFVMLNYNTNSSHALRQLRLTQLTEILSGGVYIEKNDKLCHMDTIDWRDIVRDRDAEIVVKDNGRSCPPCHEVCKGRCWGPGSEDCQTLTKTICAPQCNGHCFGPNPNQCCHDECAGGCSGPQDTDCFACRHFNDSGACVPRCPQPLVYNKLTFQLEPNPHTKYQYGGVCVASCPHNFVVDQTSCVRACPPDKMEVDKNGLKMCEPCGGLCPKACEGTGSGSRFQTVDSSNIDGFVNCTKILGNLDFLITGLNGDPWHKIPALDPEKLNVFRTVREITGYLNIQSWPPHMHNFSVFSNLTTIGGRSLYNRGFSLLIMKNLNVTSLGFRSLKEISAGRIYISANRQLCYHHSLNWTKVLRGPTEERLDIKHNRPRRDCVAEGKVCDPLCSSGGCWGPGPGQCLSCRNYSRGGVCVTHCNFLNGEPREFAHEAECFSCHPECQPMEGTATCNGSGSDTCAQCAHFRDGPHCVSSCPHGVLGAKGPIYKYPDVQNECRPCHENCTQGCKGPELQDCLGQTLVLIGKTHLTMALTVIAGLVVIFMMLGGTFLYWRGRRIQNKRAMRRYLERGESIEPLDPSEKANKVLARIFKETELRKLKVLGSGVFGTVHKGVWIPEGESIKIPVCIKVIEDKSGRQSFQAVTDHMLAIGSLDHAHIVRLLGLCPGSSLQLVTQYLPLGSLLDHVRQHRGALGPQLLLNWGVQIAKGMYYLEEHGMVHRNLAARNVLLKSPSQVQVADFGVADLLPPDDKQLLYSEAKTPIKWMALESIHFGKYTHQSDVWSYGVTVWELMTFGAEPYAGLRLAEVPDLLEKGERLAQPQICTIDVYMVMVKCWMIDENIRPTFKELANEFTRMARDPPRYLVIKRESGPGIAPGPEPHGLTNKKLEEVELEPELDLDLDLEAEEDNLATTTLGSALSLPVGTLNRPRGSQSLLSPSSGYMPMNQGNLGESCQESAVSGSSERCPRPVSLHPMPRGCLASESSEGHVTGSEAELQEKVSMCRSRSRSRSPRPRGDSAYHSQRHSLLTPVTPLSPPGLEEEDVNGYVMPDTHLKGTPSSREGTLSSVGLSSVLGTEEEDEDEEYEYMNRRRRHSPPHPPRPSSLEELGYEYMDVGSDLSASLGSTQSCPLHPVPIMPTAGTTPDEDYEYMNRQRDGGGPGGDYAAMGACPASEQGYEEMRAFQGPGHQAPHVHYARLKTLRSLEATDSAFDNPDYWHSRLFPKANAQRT
T4 sequence (Q14289 whole entry): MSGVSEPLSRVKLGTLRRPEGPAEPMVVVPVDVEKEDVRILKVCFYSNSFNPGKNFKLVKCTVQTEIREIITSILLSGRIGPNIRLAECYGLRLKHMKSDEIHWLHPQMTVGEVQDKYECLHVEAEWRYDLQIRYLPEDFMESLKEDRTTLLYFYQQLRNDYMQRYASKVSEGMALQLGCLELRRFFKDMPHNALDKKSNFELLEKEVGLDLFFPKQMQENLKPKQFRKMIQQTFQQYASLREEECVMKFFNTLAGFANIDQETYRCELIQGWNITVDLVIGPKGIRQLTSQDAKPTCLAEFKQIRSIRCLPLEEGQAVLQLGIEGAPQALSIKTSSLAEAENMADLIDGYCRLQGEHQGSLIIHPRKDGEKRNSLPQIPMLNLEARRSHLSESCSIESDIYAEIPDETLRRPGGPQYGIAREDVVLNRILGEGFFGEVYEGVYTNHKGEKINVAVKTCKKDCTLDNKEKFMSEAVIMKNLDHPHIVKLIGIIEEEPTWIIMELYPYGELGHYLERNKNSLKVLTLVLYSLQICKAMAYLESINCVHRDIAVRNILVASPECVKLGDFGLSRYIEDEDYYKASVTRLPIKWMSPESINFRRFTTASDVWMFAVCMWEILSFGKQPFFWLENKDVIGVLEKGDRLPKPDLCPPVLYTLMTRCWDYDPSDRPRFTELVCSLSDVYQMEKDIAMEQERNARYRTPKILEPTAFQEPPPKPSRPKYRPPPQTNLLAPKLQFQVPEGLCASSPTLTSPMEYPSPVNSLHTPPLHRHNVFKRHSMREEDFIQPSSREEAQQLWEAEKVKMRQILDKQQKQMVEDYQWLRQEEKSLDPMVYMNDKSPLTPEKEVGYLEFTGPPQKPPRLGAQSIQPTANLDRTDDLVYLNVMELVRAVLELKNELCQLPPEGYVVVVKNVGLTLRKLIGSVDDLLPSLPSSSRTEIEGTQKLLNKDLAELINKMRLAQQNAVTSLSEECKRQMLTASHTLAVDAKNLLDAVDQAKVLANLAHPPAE
T7 sequence (P29317 24-976): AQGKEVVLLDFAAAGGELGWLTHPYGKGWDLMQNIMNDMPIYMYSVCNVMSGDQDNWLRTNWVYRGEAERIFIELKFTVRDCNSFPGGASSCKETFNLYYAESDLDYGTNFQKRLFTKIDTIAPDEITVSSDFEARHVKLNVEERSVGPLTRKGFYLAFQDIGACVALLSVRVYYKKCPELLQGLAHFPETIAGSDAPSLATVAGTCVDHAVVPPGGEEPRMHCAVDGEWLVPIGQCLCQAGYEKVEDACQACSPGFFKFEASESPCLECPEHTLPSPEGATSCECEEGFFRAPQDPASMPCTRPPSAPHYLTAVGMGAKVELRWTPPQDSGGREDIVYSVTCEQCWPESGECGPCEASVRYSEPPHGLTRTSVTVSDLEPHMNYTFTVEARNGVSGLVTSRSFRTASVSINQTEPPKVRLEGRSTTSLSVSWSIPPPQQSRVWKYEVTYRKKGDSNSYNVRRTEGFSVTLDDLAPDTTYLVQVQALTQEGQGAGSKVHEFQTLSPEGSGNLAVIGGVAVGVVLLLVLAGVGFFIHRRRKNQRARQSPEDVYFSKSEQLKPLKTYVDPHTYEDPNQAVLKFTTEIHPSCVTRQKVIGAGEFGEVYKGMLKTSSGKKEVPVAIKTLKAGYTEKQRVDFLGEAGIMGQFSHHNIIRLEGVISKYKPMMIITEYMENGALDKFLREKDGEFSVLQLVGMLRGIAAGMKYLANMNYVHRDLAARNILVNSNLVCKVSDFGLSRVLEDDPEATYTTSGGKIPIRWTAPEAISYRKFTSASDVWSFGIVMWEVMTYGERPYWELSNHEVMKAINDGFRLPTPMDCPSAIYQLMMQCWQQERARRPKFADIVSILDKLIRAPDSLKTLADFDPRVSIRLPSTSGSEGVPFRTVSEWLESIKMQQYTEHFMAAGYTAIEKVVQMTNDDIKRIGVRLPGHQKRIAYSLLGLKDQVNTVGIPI

SMILES | Percent control (ERBB3) | Percent control (FES; FES, 10 μM) | Percent control (TNK1) | Percent control (PYK2; PYK2, 10 μM) | Percent control (BRK) | Percent control (EPHA7; EPHA7, 10 μM) | Percent control (EPHA2; EPHA2, 10 μM) | Percent control (MERTK; MERTK, 10 μM) | Percent control (ERBB4; ERBB4, 10 μM) | Percent control (BMX; BMX, 10 μM) | remaining binding at 10 µM (ERBB3) | remaining binding at 10 µM (TNK1) | remaining binding at 10 µM (BRK) | further results
Cc1ccc(NC(=O)c2ccc(CN3CCN(C)CC3)cc2)cc1Nc1nccc(-c2cccnc2)n1 [Imatinib, reference compound] | 100% | 100% | 100% | 100% | 100% | 100% | 100% | 100% | 100% | 100% |  |  |  | 
Cc1ccc(NC(=O)c2ccc(CN3CCN(C)CC3)cc2)cc1Nc1nccc(-c2cccnc2)[n+]1[Pt-2]1([Cl])[NH2+]C2CCCCC2[NH2+]1 (stereo not drawn) [1b, oxaliplatin-imatinib] | 100% | 96% | 90% | 92% | 93% | 100% | 99% | 100% | 93% | 98% |  |  |  | 
COc1cc2c(Nc3ccc(Br)cc3F)[n+]([Pt-2]3([Cl])[NH2+]C4CCCCC4[NH2+]3)cnc2cc1OCC1CCN(C)CC1 (stereo not drawn) [3b, oxaliplatin-vandetanib] | 4.1% | 100% | 90% | 80% | 27% | 79% | 43% | 17% | 56% | 92% |  |  |  | 
C#Cc1cccc(Nc2c3cc(OCCOC)c(OCCOC)cc3nc[n+]2[Pt@SP2-2]([NH3+])([NH3+])[Cl])c1 [2a, cisplatin-erlotinib] | 100% | 98% | 85% | 90% | 89% | 67% | 93% | 100% | 47% | 100% |  |  |  | 
COc1cc2c(Nc3ccc(Br)cc3F)ncnc2cc1OCC1CCN(C)CC1 [Vandetanib, reference compound] |  |  |  |  |  |  |  |  |  |  | 1.6% | 100% | 1.6% | remaining binding at 10 µM (FES; FES, 10 μM): 100%; remaining binding at 10 µM (PYK2; PYK2, 10 μM): 100%; remaining binding at 10 µM (EPHA7; EPHA7, 10 μM): 19.4%; remaining binding at 10 µM (EPHA2; EPHA2, 10 μM): 9.9%; remaining binding at 10 µM (MERTK; MERTK, 10 μM): 12.3%; remaining binding at 10 µM (ERBB4; ERBB4, 10 μM): 4.5%; remaining binding at 10 µM (BMX; BMX, 10 μM): 100%
C#Cc1cccc(Nc2ncnc3cc(OCCOC)c(OCCOC)cc23)c1 [Erlotinib] |  |  |  |  |  |  |  |  |  |  | 9.9% | 5.9% | 100% | remaining binding at 10 µM (FES): 100%; remaining binding at 10 µM (PYK2): 100%; remaining binding at 10 µM (EPHA7): 12.3%; remaining binding at 10 µM (EPHA2): 100%; remaining binding at 10 µM (MERTK): 8.9%; remaining binding at 10 µM (ERBB4): 2.2%; remaining binding at 10 µM (BMX): 100%
